# Test results published in paper PMC11892739, “Site-specific molecular glues for the 14-3-3/Tau pS214 protein–protein interaction via reversible covalent imine tethering” (RSC Medicinal Chemistry, 2025).
# Square brackets hold non-standard residues; d marks the D form. Peptide text beside a SMILES is read from it. pS = N[C@@H](COP(=O)(O)O)C(=O)O
# Target: T1, 14-3-3ζ/Tau pS2 peptide interaction (Homo sapiens, UniProt P63104)
# T1 construct: made in house; host or cells: NiCo21 (DE3) E. coli
# T1 sequence (P63104 1-245): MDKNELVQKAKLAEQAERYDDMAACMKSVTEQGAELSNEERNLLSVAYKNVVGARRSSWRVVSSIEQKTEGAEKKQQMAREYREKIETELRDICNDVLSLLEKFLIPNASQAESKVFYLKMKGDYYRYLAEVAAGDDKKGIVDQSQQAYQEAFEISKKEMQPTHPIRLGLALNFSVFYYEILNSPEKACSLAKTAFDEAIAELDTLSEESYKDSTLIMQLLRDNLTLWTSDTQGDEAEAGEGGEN
# Test: Fluorescence anisotropy compound titration to preformed 14-3-3ζ/Tau pS2 peptide complex
# Assay type: binding
# Conditions: FA
# Experimental: With the compound library constructed, we sought to screen the stabilizing activity of the imidazole analogs for the 14-3-3ζ/Tau pS2 peptide interaction. In this regard, a fluorescence anisotropy (FA) assay was performed where each individual compound was titrated against a fixed concentration of 14-3-3ζ (100 nM) and fluorescein-labelled Tau pS2 peptide (10 nM; Fig. 3a and b, ESI ^† Fig. S4 and S5, Table 1, ESI ^† Table S1). Thereby, the fixed 14-3-3ζ concentration was based on the EC20 value of the binary complex formation to enable a sufficient dynamic window for ternary complex formation. […] For each compound dose–response curve, the background signal (titration without 14-3-3ζ) was subtracted, to exclude possible false positive results. […]
# chromatography (HisTrap high performance cartridges, Cytiva). […] Dialyzed protein was concentrated to ∼40 mg/mL, analyzed by Q -Tof LC/MS, and aliquots were flash -frozen for storage at −80 °C. […] Fractions containing the 14 -3-3 protein were pooled and concentrated to ∼60 mg/mL, analyzed Q -Tof LC/MS, and aliquots were flash -frozen for storage at −80°C.
# (§1) Fluorescence Anisotropy – compound titration
# Compound titration assays were performed by titrating compounds (in 1% DMSO, starting at 500 μM) in a 2-fold dilution series to preformed complex of fluorescein -labeled Tau pS2 (10 nM) and 14 -3-3ζ (100 nM) (which represents approximately 20% bound Tau pS2 peptide to 14 -3-3ζ to allow further complex formation by addition of fragments 1) in FA buffer (10 mM HEPES pH 7.4, 150 mM NaCl, 50 µM TCEP, 0.1% (v/v) Tween20, 0.1% (w/v) BSA). […] Measurements were performed directly after plate preparation, using a Tecan SPARK plate reader at room temperature ( λex: 485±20 nm; λem: 535±25 nm; mirror: automatic; flashes: 30; settle time: 1 ms; gain: optimal; Z -position: calculated from well). […] All data were analyzed using GraphPad Prism (10.0.1) and fitted with a four -parameter logistic model (4PL) to determine binding affinities (dissociation constant, KD). […]
row,SMILES,PPI stabilizing activity (in words)
1,CC(C)c1ccc(-c2nccn2-c2ccc(C=O)c(Br)c2)cc1 [Compound 19],completely diminished PPI stabilization
2,O=Cc1ccc(-n2ccnc2-c2cccc(O)c2)cc1Br [Compound 9],slightly inhibited 14-3-3ζ/Tau pS2 peptide complex formation
3,O=Cc1ccc(-n2ccnc2-c2ccc(OCCO)cc2)cc1Br [Compound 24],did not show an improvement in PPI stabilization

# Target: T1, 14-3-3ζ/Tau pS2 peptide interaction
# Test: Fluorescence anisotropy 14-3-3ζ titration in the presence of 250 μM compound and Tau pS2 peptide
# Assay type: binding
# Conditions: 250 μM compound; apparent KD compared to internal DMSO reference
# Experimental: On the other hand, the PPI stabilizing potency of series 1 compounds was highly dependent on the position and chemical property of the substituent. […] The compound screen for these compounds was further complemented by 14-3-3ζ titration assays in the presence of a constant concentration of compound (250 μM) and Tau pS2 peptide (10 nM) (Fig. 3c, ESI ^† Fig. S6).
# This statement is strengthened by the diminished stabilizing activity when shifting the more polar chloro substituent from the para (14) to the ortho (5) to the meta position (8), respectively. […]
# chromatography (HisTrap high performance cartridges, Cytiva). Typically two 5 mL columns were used for a 2 L culture in which the lysate was loaded on the column, washed with 10 CV wash buffer (50 mM Hepes, pH 8.0, 300 mM NaCl, 25 mM imidazole, 2 mM βME), and eluted with several fractions (2-4 CV) of elution buffer (50 mM Hepes, pH 8.0, 300 mM NaCl, 250 mM imidazole, 2 mM βME). Fractions containing the 14-3-3 protein were combined and dialyzed into 25 mM HEPES pH 8.0, 200 mM NaCl, 10 mM MgCl2, 2 mM βME, followed by dialysis into 25 mM HEPES, 100 mM NaCl, 10 mM MgCl2, 500 μM TCEP (adjusted to pH 8.0). Dialyzed protein was concentrated to ∼40 mg/mL, analyzed by Q -Tof LC/MS, and aliquots were flash -frozen for storage at −80 °C. For 14 -3-3σ∆c, 1 mg TEV per 100 mg purified protein was added to the dialysis to remove the purification tag. The cleaved sample was then again loaded on a 10 mL Ni-NTA column to separate the cleaved product from the expression tag and residual uncleaved protein. The flowthrough was loade d on a Superdex 75 pg 16/60 size exclusion column (GE Life Sciences) using 25 mM HEPES, 100 mM NaCl, 10 mM MgCl2, 500 μM TCEP (adjusted to pH = 8.0) as running buffer. Fractions containing the 14 -3-3 protein were pooled and concentrated to ∼60 mg/mL, analyzed Q -Tof LC/MS, and aliquots were flash -frozen for storage at −80°C.
# as §1
# Compound titration assays were performed by titrating compounds (in 1% DMSO, starting at 500 μM) in a 2-fold dilution series to preformed complex of fluorescein -labeled Tau pS2 (10 nM) and 14 -3-3ζ (100 nM) (which represents approximately 20% bound Tau pS2 peptide to 14 -3-3ζ to allow further complex formation by addition of fragments 1) in FA buffer (10 mM HEPES pH 7.4, 150 mM NaCl, 50 µM TCEP, 0.1% (v/v) Tween20, 0.1% (w/v) BSA). Dilution series were made in polystyrene low -volume 384 -well plates (Corning #4514, Black Round Bottom). Measurements were performed directly after plate preparation, using a Tecan SPARK plate reader at room temperature ( λex: 485±20 nm; λem: 535±25 nm; mirror: automatic; flashes: 30; settle time: 1 ms; gain: optimal; Z -position: calculated from well). Wells containing only fluorescein labelled peptide were used to set as G -factor calibrated from these wells. All data were analyzed using GraphPad Prism (10.0.1) and fitted with a four -parameter logistic model (4PL) to determine binding affinities (dissociation constant, KD). All data shown is background corrected for the signal without 14 -3-3ζ and the mean and standard deviation of technical duplicate is plotted, assay performed in a scientific duplicate for hit compounds.
# Fluorescence Anisotropy – 14-3-3 titrations in the presence of compound To characterize the affinity of the Tau peptides for 14-3-3 in the presence of compound, 14-3-3ζ or γ was titrated in a 2-fold dilution series starting at 400 (for the 14-3-3ζ titrations to Tau pS2) or 800 (for the 14-3-3γ titrations to Tau pS214 or pS324) µM. 14-3-3 was added to 10 nM of fluorescein-labeled peptide (Tau pS2, Tau pS214 or Tau pS324) in the presence of 250 µM compound (1% DMSO). The assays were performed in a similar way as described above. Data shown is the average and standard deviation of a technical duplicate, top plateau corrected where needed, assay performed in a scientific duplicate.
# Fluorescence Anisotropy – peptide screen […]
row,SMILES,SF250μM (stabilization factor)
1,Cc1ccccc1-c1nccn1-c1ccc(C=O)c(Br)c1 [Compound 3],11
2,O=Cc1ccc(-n2c(-c3cccnc3)nc3ccccc32)cc1Br [Compound 2],20
3,COc1ccc(-c2nc3ccccc3n2-c2ccc(C=O)c(Br)c2)cc1 [Compound 29],8.3
4,O=Cc1ccc(-n2ccnc2-c2ccccc2)cc1C(F)(F)F [Compound 27],6.1
5,O=Cc1ccc(-n2ccnc2-c2ccccc2)cc1Cl [Compound 25],15
6,O=Cc1ccc(-n2ccnc2-c2cccc3cccnc23)cc1Br [Compound 33],4.3
7,O=Cc1ccc(-n2ccnc2-c2ccccc2)cc1I [Compound 26],1.8
8,O=Cc1ccc(-n2c(-c3ccc(OCCO)cc3)nc3ccccc32)cc1Br [Compound 31],19
9,O=Cc1ccc(-n2ccnc2-c2ccc(N3CCOCC3)cc2)cc1Br [Compound 23],16
10,O=Cc1ccc(-n2ccnc2-c2ccccc2Cl)cc1Br [Compound 5],7.5

# Same assay, conditions: screening hits
row,SMILES,stabilization of the 14-3-3ζ/Tau pS2 peptide complex [fold]
1,O=Cc1ccc(-n2c(-c3cccnc3)nc3ccccc32)cc1Br [Compound 2],20

# Target: 14-3-3ζ
# Test: not given
# Parameters: method as in doi:10.1101/2024.03.15.585148
# Conditions: FA assay; read-out: KD of monovalent Tau peptide to 14-3-3ζ; cited from earlier work
row,SMILES,Kd [µM]
1,CC[C@H](C)[C@H](NC(=O)[C@H](CC(N)=O)NC(=O)CNC(=O)[C@H](CC(C)C)NC(=O)[C@H](COP(=O)(O)O)NC(=O)CNC(=O)[C@H](CS)NC(=O)[C@H](CCCCN)NC(=O)[C@H](CO)NC(=O)[C@@H](NC(=O)[C@@H](NC(C)=O)C(C)C)[C@@H](C)O)C(=O)N[C@@H](Cc1c[nH]cn1)C(=O)N[C@@H](Cc1c[nH]cn1)C(=O)N[C@@H](CCCCN)C(=O)O [Tau pS324] (Ac-VTSKCG[pS]LGNIHHK-OH; C-terminus assumed),> 100
2,CC(=O)N[C@@H](CO)C(=O)N[C@@H](CCCNC(=N)N)C(=O)N[C@H](C(=O)N1CCC[C@H]1C(=O)N[C@@H](COP(=O)(O)O)C(=O)N[C@@H](CC(C)C)C(=O)N1CCC[C@H]1C(=O)N[C@H](C(=O)N1CCC[C@H]1C(=O)N1CCC[C@H]1C(=O)N[C@H](C(=O)N[C@@H](CCCNC(=N)N)C(=O)N[C@@H](CCC(=O)O)C(=O)O)[C@@H](C)O)[C@@H](C)O)[C@@H](C)O [Tau pS214] (Ac-SRTP[pS]LPTPPTRE-OH; C-terminus assumed),> 100
